# Assays:
# [1] = system: LA-N-1 cells subcutaneous xenograft; assay: In vivo neuroblastoma model: tumor growth / event-free survival; set-up: species or system mice; details: 10 mg/kg/day oral gavage 6 days per week vs vehicle; log-rank P=0.034; FIG. 2A
# Protocol: An in vivo model of neuroblastoma was generated in four to six-week-old female athymic Nude-Foxn1 nu/nu mice (Charles Rivers), wherein LA-N-1 cells (10^7) were subcutaneously inoculated. Tumors were allowed to grow until dimensions reached 7×7 mm. Then mice were randomized to receive either vehicle (described below) or Cinacalcet (10 mg/kg/day) by oral gavage 6 days per week until tumor volume reached 2 cm^3. Cinacalcet was prepared with Mimpara® tablets (Amgen). Following homogenization of the Mimpara® tablets in a mortar, the resulting powder was reconstituted with 0.5% Tween 20 (20%, v/v) and carboxymethylcellulose (0.25%, w/v) to a final concentration of […]. Each dose contained 5 μL of this mixture per gram of mouse weight. Dimensions of tumors were measured thrice a week using a digital caliper. Tumor volume was calculated as L×W^2/2 in which “L” indicates length in mm and “W” indicates width in mm. At the end of the experiment (each mouse was sacrificed when the corresponding xenograft reached the final pre-determined volume 2 cm^3), tumors were excised and half of each specimen was frozen in liquid nitrogen for molecular analyses and the other was fixed in 10% formalin. For event-free survival (EFS) analysis, an event was defined as tumor size that exceeded 2 cm^3. The log-rank statistic was used to compare the EFS probabilities between groups. […]
# SH-SY5Y CaSR/GFP = assay: RT-qPCR mRNA expression in SH-SY5Y CaSR/GFP neuroblastoma cells grown with Cinacalcet; format: cell-based, Homo sapiens; details: 1 μM Cinacalcet vs DMSO, up to 21 days
# Protocol: (§1) Three neuroblastoma cell lines LA-N-1, SK-N-LP and SH-SY5Y were used for this purpose. […] No expression of the CaSR is detectable in SH-SY5Y either. Thus, SK-N-LP and SH-SY5Y were stably transfected with pCMV-CaSR-GFP or pCMV-GFP. All cell lines were grown in the presence of 1 μM Cinacalcet (Selleck Chemicals, S1260) or DMSO for 21 days in P100 plates. Morphology was assessed daily. Total RNA was isolated at days 1, 3, 5, 7, 10, 14 and 21. Several markers were analyzed by RT-qPCR using SYBRgreen and specific primers or Taqman technology and gene-specific Assays-on-Demand (Applied Biosystems) (Table 1).
# (§2) These features reached maximal expression between days 7 and 14 (FIG. 1). […] Neuroblastoma cytodifferentiation is an indication of this tumor becoming more benign, less proliferative. […] Moreover, upregulation of these differentiation-associated genes and CTAs both in vitro and in vivo (see Examples 2-4) validates the proposed in vitro model (doses used, time of exposure, etc) as a good model to evaluate neuroblastoma response to treatment with Cinacalcet.
# LA-N-1 = assay: RT-qPCR mRNA expression in LA-N-1 neuroblastoma cells grown with Cinacalcet; format: cell-based, Homo sapiens; details: 1 μM Cinacalcet vs DMSO, up to 21 days
# Protocol: as §1, §2
# SK-N-LP CaSR/GFP = assay: RT-qPCR mRNA expression in SK-N-LP CaSR/GFP neuroblastoma cells grown with Cinacalcet; format: cell-based, Homo sapiens; details: 1 μM Cinacalcet vs DMSO, up to 21 days
# Protocol: as §1, §2
# [2] = system: normal surrounding tissues; assay: Genome-wide expression analysis of murine genes in xenograft RNAs, Affymetrix Mouse Gene Array 2.1 ST; format: in vivo
# Protocol: Genome-wide expression analyses were performed using Affymetrix Human and Mouse Gene Array 2.1 ST (Affymetrix, reference number 902136 for human gene array and 902120 for mouse gene array) as per manufacturer's protocol. Procedures to analyze results included: Quality control of the arrays (following this step, xenograft C6 was removed from further analyses); filtering and normalization; selection of differentially expressed genes; single comparison (treated versus control samples); list of differentially expressed genes ranked by significance; Volcano plots showing the most differentially expressed genes; heatmaps of the clustered expression profiles; and analysis of biological significance through enrichment analysis against the Gene Ontologies, KEGG (Kyoto Encyclopedia of Genes and Genomes) and Ingenuity pathways.
# In order to evaluate whether upregulation of CTAs was a tumor-specific effect or it was induced in normal surrounding tissues as well, a genome-wide expression analysis by means of microarrays was conducted using a chip to detect murine genes differentially expressed in the same RNAs analyzed in the human array.
# [3] = Mus musculus genes in xenograft RNAs, Cinacalcet vs vehicle, adjusted P 0.80678117
smiles,measurement,setting,value
C[C@@H](NCCCc1cccc(C(F)(F)F)c1)c1cccc2ccccc12 [Cinacalcet],"Tumor growth (event-free survival, event = tumor size > 2 cm^3)",[1],significant tumor growth inhibition
same,CTCFL mRNA fold increase,SH-SY5Y CaSR/GFP,no expression
same,MAGEA2 mRNA fold increase,SH-SY5Y CaSR/GFP,2.4 fold
same,MAGEA3 mRNA fold increase,SH-SY5Y CaSR/GFP,14.6 fold
same,NFL mRNA fold increase,SH-SY5Y CaSR/GFP,2.3 fold
same,NTRK1 mRNA fold increase,SH-SY5Y CaSR/GFP,2.9 fold
same,NTRK3 mRNA fold increase,SH-SY5Y CaSR/GFP,4.7 fold
same,S100-β mRNA fold increase,SH-SY5Y CaSR/GFP,2.2 fold
same,SSX4/4B mRNA fold increase,SH-SY5Y CaSR/GFP,3.45 fold
same,TUBB3 mRNA fold increase,SH-SY5Y CaSR/GFP,1.7 fold
same,GAGE-P1 mRNA fold increase,SH-SY5Y CaSR/GFP; primer pair GAGE P1,1.4 fold
same,GAGE-P2 mRNA fold increase,SH-SY5Y CaSR/GFP; primer pair GAGE P2,7.9 fold
same,GAGE-P3 mRNA fold increase,SH-SY5Y CaSR/GFP; primer pair GAGE P3,2.5 fold
same,CTCFL mRNA fold increase,LA-N-1,1.2 fold
same,MAGEA2 mRNA fold increase,LA-N-1,2.9 fold
same,MAGEA3 mRNA fold increase,LA-N-1,1.4 fold
same,NFL mRNA fold increase,LA-N-1,ns
same,NTRK1 mRNA fold increase,LA-N-1,3.2 fold
same,NTRK3 mRNA fold increase,LA-N-1,2.4 fold
same,S100-β mRNA fold increase,LA-N-1,6.9 fold
same,SSX4/4B mRNA fold increase,LA-N-1,3.8 fold
same,TUBB3 mRNA fold increase,LA-N-1,ns
same,GAGE-P1 mRNA fold increase,LA-N-1; primer pair GAGE P1,2.7 fold
same,GAGE-P2 mRNA fold increase,LA-N-1; primer pair GAGE P2,7.6 fold
same,GAGE-P3 mRNA fold increase,LA-N-1; primer pair GAGE P3,5.1 fold
same,CTCFL mRNA fold increase,SK-N-LP CaSR/GFP,no expression
same,MAGEA2 mRNA fold increase,SK-N-LP CaSR/GFP,36.6 fold
same,MAGEA3 mRNA fold increase,SK-N-LP CaSR/GFP,155.4 fold
same,NFL mRNA fold increase,SK-N-LP CaSR/GFP,7.2 fold
same,NTRK1 mRNA fold increase,SK-N-LP CaSR/GFP,3.6 fold
same,NTRK3 mRNA fold increase,SK-N-LP CaSR/GFP,2.6 fold
same,S100-β mRNA fold increase,SK-N-LP CaSR/GFP,72.3 fold
same,SSX4/4B mRNA fold increase,SK-N-LP CaSR/GFP,69 fold
same,TUBB3 mRNA fold increase,SK-N-LP CaSR/GFP,2.8 fold
same,GAGE-P1 mRNA fold increase,SK-N-LP CaSR/GFP; primer pair GAGE P1,4.1 fold
same,GAGE-P2 mRNA fold increase,SK-N-LP CaSR/GFP; primer pair GAGE P2,5.7 fold
same,GAGE-P3 mRNA fold increase,SK-N-LP CaSR/GFP; primer pair GAGE P3,6.3 fold
same,"Log fold change, murine probe 17395227 (Gm14399)","[2]; Mus musculus genes in xenograft RNAs, Cinacalcet vs vehicle, adjusted P 0.60678117",1.067
same,"Log fold change, murine probe 17262250 (Tgtp2//Tgtp1)","[2]; Mus musculus genes in xenograft RNAs, Cinacalcet vs vehicle, adjusted P 0.80676117",1.108
same,"Log fold change, murine probe 17302054 (Snora31)",[2]; [3],1.105
same,"Log fold change, murine probe 17352957 (Dsc1)",[2]; [3],1.033
same,"Log fold change, murine probe 17380529 (Gm14419//Gm14391//Gm6710)",[2]; [3],1.033
same,"Log fold change, murine probe 17386477 (Gm11084)",[2]; [3],1.567
same,"Log fold change, murine probe 17458439 (Gpnmb)",[2]; [3],1.221
same,"Log fold change, murine probe 17483098 (Gdpd3)",[2]; [3],1.309
same,"Log fold change, murine probe 17503825 (Mmp2)",[2]; [3],1.046
same,"Log fold change, murine probe 17546762 (LOC101055644//Mid1//MID1)",[2]; [3],1.088
same,"Log fold change, murine probe 17546774 (Erdr1//Dock9)",[2]; [3],1.341
same,Upregulation of CTAs in normal surrounding (murine) tissues,"[2]; murine microarray, also when C9-C11 analyzed, no gene significant (adjusted P-value >0.05)",CTAs were not amongst the over-expressed genes

# — patent US20180207111A1, “IMMUNOTHERAPY FOR CASR-EXPRESSING CANCER (E.G. NEUROBLASTOMA)” (HOSPITAL SANT JOAN DE DEU, priority 2015, published 2018)
